# Measured values reported in ChEMBL document CHEMBL5512606, “An overview of the functions of p53 and drugs acting either on wild- or mutant-type p53” (Eur J Med Chem, 2024).
# What was measured:
# [1] = Half life in male Crl:CD Sprague-Dawley rat at 40 to 80 mg/kg/day, po or iv measured after 28 days; format: ADME, organism-based; conditions: in vivo, dose 40-80 mg/kg/day, time 28 day
# [2] = Half life in F344/N Jcl-rnu rat at 40 to 80 mg/kg/day, po or iv measured after 28 days; format: ADME, organism-based; conditions: in vivo, dose 40-80 mg/kg/day, time 28 day
# [3] = Oral bioavailability in male Crl:CD Sprague-Dawley rat at 40 to 80 mg/kg/day measured after 28 days; format: ADME, organism-based; conditions: in vivo, dose 40-80 mg/kg/day, time 28 day
# [4] = Oral bioavailability in F344/N Jcl-rnu rat at 40 to 80 mg/kg/day measured after 28 days; format: ADME, organism-based; conditions: in vivo, dose 40-80 mg/kg/day, time 28 day
# RS4-11 = assay: Antitumor activity in human RS4-11 cells xenografted in mouse model assessed as tumor growth regression at 200 mg/kg,po relative to control; format: functional
# LNCaP = assay: Antitumor activity in human LNCaP cells xenografted in mouse model assessed as tumor growth regression at 200 mg/kg,po relative to control; format: functional
half-life [1] [h],half-life [2] [h],bioavailability [3] [%],bioavailability [4] [%],SMILES,Activity (RS4-11) [%],Activity (LNCaP) [%]
14,14,12,12,COc1ccc(/C=C/c2nc(NCCCN(C)C)c3ccccc3n2)cc1,,
,,,,CC(C)(C)C[C@@H]1N[C@@H](C(=O)N[C@H]2CC[C@H](O)CC2)[C@H](c2cccc(Cl)c2F)[C@]12C(=O)Nc1cc(Cl)ccc12 [SAR-405838],100,80
